The source made the active and inactive calls.
Key:
INS1 = test: beta cell apoptosis inhibitors, cytokine rescue, dose response, luminescence, retest (AID 449756); assay type: functional, cell-based; conditions: Rattus norvegicus;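 note: cell death triggered by IL-1 beta plus TNF-alpha plus IFN-gamma mixture; protective hits raise ATP signal compared with cytokine alone wells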
[1] = biological target: COUP transcription factor 2 (Homo sapiens, UniProt P24468); test: Luminescence-based cell-based high throughput dose response assay to identify inhibitors of COUP-TFII (NR2F2).; assay type: functional;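 note: HEK293 cells transiently cotransfected with COUP-TFII expression vector and reporter; luciferase reporter luminescence driven by COUP-TFII from the pX2-168 reporter plasmid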
Jurkat = test: antigen receptor-induced NF-kB inhibitors, dose response, Jurkat, luciferase reporter, luminescence, B- and T-cell (AID 489004); assay type: functional, cell-based; conditions: Homo sapiens;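 note: NF-kB luciferase reporter Jurkat cells stimulated with PMA plus ionomycin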
[2] = cytotoxicity in HEK-293T NF-kB-Luc cells, dose response, cytotoxicity control for B/T-cell NF-kB inhibitor project, cell-based, uHTS hits (AID 489019); assay type: functional;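 note: IC50 reflects cytotoxicity as loss of cell viability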
[3] = Luminescence Cell-Based Dose Response HTS to Identify Activators of Luciferase Translation or Activity in H4 […] Cells. [Related pubchem assays: 1829 (Project Summary), 1814 (Primary HTS)]; assay type: functional
H4 = test: Luminescence Cell-Based Dose Response HTS to Identify Activators of 5'UTR Stem-Loop Driven Prion Protein mRNA Translation in H4 Neuroglioblastoma Cells. [Related pubchem assays: 1829 (Project Summary), 1814 (Primary HTS)]; assay type: functional; conditions: Homo sapiens
HeLa = test: HeLa cell cytotoxicity, dose response, cytotoxicity control for MITF activator project, CellTiter-Glo luminescence, cherry-pick samples (AID 540259); assay type: functional, cell-based; conditions: Homo sapiens
[4] = Luminescence Cell-Based Dose Confirmation HTS to Identify Activators of 5'UTR Stem-Loop Driven Alpha-Synuclein mRNA Translation in H4 Neuroglioblastoma Cells. [Related pubchem assays: 1829 (Project Summary), 1814 (Primary HTS)]; assay type: functional
[5] = biological target: Dual specificity tyrosine-phosphorylation-regulated kinase 1A (Rattus norvegicus, UniProt Q63470); assay type: biochemical, Homo sapiens
[6] = biological target: Type-1 angiotensin II receptor (Homo sapiens, UniProt P30556); test: AT1 receptor antagonists, dose response, selectivity assay for APJ receptor antagonist project, cell-based, uHTS hits (AID 463214); assay type: functional;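 note: antagonist potency against angiotensin II stimulated AT1 response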
Beta-galactosidase = Beta-galactosidase (Escherichia coli, UniProt Q8VNN2); test: PubChem AID 485352; assay type: functional
[7] = biological target: Dual specificity protein kinase CLK1 (Homo sapiens, UniProt P49759); test: CLK1 kinase inhibitors, off-target check, dose response, selectivity assay for Dyrk1A inhibitor project, biochemical, cherry-picked samples (AID 588811)
[8] = biological target: T1, Microphthalmia-associated transcription factor (Homo sapiens, UniProt O75030); test: TRPM1 promoter luciferase signal decrease, dose response, MITF inhibitor project, cell-based, SK-MEL-5, cherry-picked, set 3 (AID 493073); assay type: functional
T1 sequence (O75030 whole entry): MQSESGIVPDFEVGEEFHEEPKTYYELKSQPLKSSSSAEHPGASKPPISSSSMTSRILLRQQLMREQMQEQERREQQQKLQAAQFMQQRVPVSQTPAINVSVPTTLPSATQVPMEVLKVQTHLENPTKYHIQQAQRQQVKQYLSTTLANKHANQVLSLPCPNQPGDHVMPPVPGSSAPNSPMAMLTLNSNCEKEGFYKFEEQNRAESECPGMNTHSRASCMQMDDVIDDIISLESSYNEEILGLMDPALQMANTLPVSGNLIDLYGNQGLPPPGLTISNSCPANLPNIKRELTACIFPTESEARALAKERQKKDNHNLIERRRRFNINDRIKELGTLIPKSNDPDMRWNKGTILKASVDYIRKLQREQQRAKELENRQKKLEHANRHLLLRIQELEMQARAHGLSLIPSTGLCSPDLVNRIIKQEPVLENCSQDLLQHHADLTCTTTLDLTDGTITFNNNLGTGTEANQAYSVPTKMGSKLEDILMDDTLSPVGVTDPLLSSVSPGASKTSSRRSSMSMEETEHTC

Genome polyprotein = Genome polyprotein (dengue virus type 2, UniProt P29990); test: Dengue-2 NS5 methyltransferase inhibitors, primary screen, biochemical, confirmation dose response (AID 588689); assay type: functional
Vero = Vero cell cytotoxicity, cytotoxicity control for flavivirus capping enzyme inhibitors (AID 588742); assay type: functional; conditions: Chlorocebus sabaeus
A-375 = test: MITF: Counter assay: A375 proliferation Measured in Cell-Based System Using Plate Reader - 2084-03_Inhibitor_Dose_DryPowder_Activity. [Related pubchem assays (depositor defined):AID488944]; assay type: functional; conditions: Homo sapiens
Large T antigen = Large T antigen (Simian virus 40, UniProt P03070); assay type: functional, Betapolyomavirus macacae;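 note: Confirmatory-stage PubChem screen for compounds that inhibit SV40 T antigen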
[9] = biological target: Heat shock protein HSP 90-alpha (Homo sapiens, UniProt P07900); assay type: functional, organism-based
[10] = biological target: Beta-2 adrenergic receptor (Homo sapiens, UniProt P07550); test: beta2AR agonists driving receptor internalization, dose response, cell-based, FAP fluorogen, flow cytometry, cherry pick 1 (AID 588763); assay type: functional
HEK293 [11] = test: cells; conditions: Homo sapiens
HEK293 [12] = test: cells; conditions: Homo sapiens; remark: listed apart in the source
[13] = cytotoxicity in MIN6 insulinoma cells, dose response, cytotoxicity control, cell-based, mouse insulinoma (AID 2122); assay type: functional;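 note: confirmatory high-throughput counterscreen run to flag cytotoxic compounds; mouse MIN-6 beta cells carrying an insulin promoter eGFP reporter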
[14] = biological target: T2, Rac GTPase-activating protein 1 (Homo sapiens, UniProt Q9H0H5); test: MgcRacGAP GTPase-activating activity inhibitors, confirmation, biochemical, ADP Hunter fluorescence, primary and confirmatory (AID 624330); assay type: functional
T2 sequence (Q9H0H5 whole entry): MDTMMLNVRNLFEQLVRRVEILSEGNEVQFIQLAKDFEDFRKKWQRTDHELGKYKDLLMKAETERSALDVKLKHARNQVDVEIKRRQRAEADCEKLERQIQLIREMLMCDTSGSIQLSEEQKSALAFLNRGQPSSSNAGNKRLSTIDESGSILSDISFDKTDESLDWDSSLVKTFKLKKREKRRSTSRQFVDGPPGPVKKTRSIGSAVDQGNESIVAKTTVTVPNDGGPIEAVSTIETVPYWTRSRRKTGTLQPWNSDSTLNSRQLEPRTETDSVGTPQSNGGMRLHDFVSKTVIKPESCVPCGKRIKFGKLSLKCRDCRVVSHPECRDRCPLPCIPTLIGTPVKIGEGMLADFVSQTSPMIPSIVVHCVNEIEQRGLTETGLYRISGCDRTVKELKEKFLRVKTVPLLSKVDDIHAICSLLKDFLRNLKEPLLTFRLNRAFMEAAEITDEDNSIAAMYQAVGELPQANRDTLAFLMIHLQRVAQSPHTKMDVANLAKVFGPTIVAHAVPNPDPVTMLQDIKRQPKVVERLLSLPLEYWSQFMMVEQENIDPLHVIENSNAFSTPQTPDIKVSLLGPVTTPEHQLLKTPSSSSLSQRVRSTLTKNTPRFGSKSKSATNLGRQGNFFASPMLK

[15] = insulin promoter down-regulators in MIN6 cells, imaging, high-content screening, mouse beta cells (AID 1628); assay type: functional
[16] = biological target: Eukaryotic translation initiation factor 4E (Mus musculus, UniProt P63073); test: eIF4E–eIF4G protein interaction inhibitors, dose response, biochemical, TR-FRET (AID 855); assay type: functional;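 note: potency for disrupting eIF4E binding to eIF4GI seen as loss of FRET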
[17] = biological target: T3, Lysine-specific demethylase 4C (Homo sapiens, UniProt Q9H3R0); test: GASC-1 (JMJD2C) histone demethylase inhibitors, dose response, biochemical, DELFIA europium, cherry-picked samples (AID 488835); assay type: functional
T3 sequence (Q9H3R0 whole entry): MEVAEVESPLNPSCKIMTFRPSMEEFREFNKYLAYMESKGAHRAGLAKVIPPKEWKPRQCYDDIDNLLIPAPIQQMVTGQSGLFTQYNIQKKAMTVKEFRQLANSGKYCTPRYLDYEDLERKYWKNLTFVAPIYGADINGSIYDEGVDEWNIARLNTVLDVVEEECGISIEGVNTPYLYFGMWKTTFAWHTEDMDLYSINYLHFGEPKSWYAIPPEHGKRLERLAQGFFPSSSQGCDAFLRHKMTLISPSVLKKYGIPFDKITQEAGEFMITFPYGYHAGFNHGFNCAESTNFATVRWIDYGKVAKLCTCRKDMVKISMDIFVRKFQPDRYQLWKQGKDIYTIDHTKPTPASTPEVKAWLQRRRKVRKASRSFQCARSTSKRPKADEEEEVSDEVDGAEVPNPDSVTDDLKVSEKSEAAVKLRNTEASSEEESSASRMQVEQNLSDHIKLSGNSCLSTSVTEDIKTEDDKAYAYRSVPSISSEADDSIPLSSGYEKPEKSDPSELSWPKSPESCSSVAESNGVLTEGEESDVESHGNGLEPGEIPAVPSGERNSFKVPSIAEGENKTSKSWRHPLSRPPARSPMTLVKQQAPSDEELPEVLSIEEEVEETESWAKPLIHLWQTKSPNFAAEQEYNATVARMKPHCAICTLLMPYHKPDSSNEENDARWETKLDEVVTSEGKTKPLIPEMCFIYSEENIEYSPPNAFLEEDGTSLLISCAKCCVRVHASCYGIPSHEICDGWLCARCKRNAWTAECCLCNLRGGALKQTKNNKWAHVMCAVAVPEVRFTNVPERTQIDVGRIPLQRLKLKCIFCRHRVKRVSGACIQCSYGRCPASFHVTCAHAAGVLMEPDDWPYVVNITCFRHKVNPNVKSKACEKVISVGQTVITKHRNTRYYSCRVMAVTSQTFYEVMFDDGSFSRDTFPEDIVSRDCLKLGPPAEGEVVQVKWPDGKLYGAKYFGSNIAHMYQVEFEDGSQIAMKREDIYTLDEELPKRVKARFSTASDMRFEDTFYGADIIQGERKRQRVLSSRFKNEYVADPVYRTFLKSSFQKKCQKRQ

Hexokinase HKDC1 [18] = biological target: T4, Hexokinase HKDC1 (Homo sapiens, UniProt Q2TB90); test: SAR analysis of small molecule inhibitors of hexokinase domain containing I (HKDC1). [Related pubchem assays (depositor defined):AID493160, AID493190]; assay type: functional
T4 sequence (Q2TB90 whole entry): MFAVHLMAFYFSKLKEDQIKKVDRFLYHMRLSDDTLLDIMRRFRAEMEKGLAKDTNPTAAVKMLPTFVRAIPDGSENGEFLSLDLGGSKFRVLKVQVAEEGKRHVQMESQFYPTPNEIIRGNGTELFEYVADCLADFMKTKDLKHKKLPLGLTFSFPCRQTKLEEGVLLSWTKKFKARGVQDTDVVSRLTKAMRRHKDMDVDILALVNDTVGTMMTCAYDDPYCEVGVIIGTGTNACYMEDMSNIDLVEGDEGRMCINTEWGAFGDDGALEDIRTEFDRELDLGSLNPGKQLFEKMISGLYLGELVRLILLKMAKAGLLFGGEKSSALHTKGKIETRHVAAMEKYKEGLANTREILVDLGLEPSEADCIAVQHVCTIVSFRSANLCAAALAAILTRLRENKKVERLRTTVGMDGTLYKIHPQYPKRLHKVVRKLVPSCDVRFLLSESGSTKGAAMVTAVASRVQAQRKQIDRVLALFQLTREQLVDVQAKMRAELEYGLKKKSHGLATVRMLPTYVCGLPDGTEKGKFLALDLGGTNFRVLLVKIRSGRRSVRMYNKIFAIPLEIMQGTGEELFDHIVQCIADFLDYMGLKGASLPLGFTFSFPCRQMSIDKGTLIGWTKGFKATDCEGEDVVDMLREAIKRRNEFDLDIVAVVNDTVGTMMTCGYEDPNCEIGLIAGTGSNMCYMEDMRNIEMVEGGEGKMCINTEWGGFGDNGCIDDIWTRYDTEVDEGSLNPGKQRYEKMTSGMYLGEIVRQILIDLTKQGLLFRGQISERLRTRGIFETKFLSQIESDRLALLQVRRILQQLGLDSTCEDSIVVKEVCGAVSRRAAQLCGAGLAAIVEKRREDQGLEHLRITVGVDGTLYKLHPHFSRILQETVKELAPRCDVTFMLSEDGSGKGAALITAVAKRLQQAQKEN

Hexokinase-1 = Hexokinase-1 (Homo sapiens, UniProt P19367); test: SAR analysis of small molecule inhibitors of hexokinase domain containing I (HKDC1) in the hexokinase 1 selectivity assay. [Related pubchem assays (depositor defined):AID493160, AID493190]; assay type: functional
Hexokinase HKDC1 [19] = biological target: T4, Hexokinase HKDC1; test: HKDC1 hexokinase inhibitors, dose response, biochemical, W721R variant (AID 504729); assay type: functional
[20] = biological target: Induced myeloid leukemia cell differentiation protein Mcl-1 (Homo sapiens, UniProt Q07820); assay type: functional
Chain of Induced myeloid leukemia cell differentiation protein Mcl-1 (Q07820 whole entry): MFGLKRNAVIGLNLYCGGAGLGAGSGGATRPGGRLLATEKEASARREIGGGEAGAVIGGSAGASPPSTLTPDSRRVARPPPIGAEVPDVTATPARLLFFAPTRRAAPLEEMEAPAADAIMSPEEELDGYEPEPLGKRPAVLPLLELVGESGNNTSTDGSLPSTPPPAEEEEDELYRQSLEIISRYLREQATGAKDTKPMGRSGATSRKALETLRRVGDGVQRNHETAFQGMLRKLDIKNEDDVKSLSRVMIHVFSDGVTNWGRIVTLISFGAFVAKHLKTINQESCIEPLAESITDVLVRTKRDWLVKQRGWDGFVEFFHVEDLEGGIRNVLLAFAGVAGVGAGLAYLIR

Chain of COUP transcription factor 2 (P24468 whole entry): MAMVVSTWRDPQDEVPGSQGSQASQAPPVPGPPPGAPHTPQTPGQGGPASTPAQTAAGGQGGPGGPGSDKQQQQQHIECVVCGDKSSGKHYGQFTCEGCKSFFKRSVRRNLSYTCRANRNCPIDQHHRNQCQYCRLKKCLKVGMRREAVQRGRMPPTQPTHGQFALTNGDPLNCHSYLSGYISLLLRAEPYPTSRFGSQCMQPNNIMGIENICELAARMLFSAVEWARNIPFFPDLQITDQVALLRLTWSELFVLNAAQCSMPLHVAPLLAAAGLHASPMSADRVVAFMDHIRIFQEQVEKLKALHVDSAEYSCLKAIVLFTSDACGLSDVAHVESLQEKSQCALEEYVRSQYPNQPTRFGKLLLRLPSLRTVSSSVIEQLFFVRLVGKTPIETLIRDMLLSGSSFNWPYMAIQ
Chain of Type-1 angiotensin II receptor (P30556 whole entry): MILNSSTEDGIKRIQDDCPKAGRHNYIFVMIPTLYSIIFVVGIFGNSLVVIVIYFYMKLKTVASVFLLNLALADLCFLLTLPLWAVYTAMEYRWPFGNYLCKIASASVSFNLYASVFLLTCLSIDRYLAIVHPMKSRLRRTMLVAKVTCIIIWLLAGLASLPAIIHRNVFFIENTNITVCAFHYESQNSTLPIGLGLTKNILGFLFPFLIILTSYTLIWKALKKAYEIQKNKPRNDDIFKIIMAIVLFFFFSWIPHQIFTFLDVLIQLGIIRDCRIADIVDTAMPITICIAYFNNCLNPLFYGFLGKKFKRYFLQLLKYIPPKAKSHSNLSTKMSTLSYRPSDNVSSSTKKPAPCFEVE
Chain of Beta-2 adrenergic receptor (P07550 whole entry): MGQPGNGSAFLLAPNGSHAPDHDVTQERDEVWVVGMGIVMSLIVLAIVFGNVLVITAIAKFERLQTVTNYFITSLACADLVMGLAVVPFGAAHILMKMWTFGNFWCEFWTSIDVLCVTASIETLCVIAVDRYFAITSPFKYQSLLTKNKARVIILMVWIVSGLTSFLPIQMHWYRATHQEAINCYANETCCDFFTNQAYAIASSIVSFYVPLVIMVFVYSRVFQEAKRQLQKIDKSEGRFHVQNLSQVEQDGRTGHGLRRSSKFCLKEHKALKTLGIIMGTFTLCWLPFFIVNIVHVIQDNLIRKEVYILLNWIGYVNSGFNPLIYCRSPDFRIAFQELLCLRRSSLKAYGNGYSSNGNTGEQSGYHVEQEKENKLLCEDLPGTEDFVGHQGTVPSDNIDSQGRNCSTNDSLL
Chain of Large T antigen (P03070 whole entry): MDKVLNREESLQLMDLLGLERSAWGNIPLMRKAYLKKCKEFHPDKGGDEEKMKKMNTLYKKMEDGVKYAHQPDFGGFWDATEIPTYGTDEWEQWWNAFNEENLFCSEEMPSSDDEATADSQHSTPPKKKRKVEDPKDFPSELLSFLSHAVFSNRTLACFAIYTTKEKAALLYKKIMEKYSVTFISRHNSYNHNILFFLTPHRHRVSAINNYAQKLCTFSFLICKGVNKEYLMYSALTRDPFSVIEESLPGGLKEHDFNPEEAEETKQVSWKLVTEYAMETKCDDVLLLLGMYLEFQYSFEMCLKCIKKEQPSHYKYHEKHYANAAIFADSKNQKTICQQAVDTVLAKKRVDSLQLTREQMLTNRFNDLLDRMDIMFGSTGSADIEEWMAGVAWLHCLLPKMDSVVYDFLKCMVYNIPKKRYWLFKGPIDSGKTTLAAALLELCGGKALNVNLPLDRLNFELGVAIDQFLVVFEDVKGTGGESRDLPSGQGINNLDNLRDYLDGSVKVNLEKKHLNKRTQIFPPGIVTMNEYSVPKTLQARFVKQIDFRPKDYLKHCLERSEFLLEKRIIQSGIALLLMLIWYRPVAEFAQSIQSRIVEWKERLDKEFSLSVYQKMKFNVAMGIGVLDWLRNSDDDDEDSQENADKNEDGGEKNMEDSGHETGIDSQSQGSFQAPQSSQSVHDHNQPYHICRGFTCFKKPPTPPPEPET
Chain of Hexokinase-1 (P19367 whole entry, the tested form may be a part): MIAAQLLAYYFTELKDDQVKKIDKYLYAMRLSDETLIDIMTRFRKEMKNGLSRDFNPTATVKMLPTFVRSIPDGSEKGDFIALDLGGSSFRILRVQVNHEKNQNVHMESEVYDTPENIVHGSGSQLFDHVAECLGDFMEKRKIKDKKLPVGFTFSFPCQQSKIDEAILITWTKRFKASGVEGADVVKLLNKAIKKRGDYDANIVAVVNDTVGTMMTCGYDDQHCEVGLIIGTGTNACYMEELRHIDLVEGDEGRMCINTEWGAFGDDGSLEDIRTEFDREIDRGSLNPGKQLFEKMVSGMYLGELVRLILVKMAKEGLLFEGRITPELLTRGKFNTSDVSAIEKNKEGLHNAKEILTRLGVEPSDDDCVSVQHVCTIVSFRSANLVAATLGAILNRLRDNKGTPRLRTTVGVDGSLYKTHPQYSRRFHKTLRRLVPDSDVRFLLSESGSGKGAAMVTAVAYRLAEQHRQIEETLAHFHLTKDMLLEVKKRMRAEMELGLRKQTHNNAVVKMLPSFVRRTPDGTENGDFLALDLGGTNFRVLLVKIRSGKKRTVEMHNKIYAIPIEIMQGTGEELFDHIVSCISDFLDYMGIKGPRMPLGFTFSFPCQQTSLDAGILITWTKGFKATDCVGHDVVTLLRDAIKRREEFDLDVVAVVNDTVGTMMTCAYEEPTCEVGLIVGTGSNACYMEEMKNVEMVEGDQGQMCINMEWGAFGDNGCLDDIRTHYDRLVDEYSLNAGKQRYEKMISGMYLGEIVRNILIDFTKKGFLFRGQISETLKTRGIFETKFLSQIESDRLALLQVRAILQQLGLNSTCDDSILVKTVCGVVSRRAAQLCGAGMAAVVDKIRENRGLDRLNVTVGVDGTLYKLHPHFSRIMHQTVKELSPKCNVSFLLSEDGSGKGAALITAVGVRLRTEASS
Chain of Beta-galactosidase (Q8VNN2 whole entry): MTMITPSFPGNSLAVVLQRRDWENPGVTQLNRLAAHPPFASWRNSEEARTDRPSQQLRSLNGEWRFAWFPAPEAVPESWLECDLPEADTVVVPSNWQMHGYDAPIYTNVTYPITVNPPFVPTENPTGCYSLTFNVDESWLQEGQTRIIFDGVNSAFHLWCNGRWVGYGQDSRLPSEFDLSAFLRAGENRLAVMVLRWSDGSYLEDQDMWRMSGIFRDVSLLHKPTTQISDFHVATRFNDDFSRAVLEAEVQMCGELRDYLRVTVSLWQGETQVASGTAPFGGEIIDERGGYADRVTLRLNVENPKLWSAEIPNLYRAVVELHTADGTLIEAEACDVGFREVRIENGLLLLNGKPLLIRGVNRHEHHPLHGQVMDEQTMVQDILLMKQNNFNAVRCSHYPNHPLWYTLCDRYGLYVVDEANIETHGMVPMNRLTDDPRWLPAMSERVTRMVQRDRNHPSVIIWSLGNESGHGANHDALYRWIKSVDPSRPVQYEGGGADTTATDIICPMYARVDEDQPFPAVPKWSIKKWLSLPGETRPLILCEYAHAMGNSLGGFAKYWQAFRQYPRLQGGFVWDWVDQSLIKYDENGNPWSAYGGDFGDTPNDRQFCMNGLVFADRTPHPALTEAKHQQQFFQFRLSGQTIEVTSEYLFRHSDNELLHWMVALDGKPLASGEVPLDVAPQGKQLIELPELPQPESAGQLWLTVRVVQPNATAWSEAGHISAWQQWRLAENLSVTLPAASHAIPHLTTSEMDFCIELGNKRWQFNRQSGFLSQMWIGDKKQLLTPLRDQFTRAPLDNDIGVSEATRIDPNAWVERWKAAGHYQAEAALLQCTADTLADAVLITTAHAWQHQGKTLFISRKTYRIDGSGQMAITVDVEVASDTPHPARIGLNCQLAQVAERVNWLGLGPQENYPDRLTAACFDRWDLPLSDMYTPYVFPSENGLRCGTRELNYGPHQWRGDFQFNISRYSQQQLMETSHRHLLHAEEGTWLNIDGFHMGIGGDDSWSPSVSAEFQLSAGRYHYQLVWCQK
Chain of Eukaryotic translation initiation factor 4E (P63073 whole entry): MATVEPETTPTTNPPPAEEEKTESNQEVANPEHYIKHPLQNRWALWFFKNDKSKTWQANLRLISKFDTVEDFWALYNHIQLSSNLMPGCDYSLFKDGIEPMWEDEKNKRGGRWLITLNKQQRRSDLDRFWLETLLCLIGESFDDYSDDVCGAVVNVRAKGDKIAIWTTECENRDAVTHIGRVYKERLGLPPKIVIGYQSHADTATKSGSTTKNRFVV
Chain of Dual specificity protein kinase CLK1 (P49759 whole entry): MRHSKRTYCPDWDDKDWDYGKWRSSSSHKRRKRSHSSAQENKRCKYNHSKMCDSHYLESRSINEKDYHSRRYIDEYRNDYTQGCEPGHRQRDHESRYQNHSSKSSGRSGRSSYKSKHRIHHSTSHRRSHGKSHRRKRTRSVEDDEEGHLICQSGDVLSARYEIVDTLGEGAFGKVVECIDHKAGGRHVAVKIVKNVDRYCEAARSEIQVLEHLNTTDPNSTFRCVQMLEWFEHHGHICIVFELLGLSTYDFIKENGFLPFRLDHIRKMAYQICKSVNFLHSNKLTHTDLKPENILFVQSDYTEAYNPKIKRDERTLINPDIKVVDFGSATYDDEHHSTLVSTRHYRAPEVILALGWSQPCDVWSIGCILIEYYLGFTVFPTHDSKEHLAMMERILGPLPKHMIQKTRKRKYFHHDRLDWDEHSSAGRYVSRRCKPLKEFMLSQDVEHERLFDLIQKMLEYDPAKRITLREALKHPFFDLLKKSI

Compound: CCCCCCn1ccc(=N)cc1
- AC50 (INS1): 3.13 µM (active)
- IC50 [1]: 15.8 µM (inactive)
- IC50 (Jurkat): > 80 µM (inactive)
- IC50 [2]: 13 µM (active)

Compound: COC(=O)c1ccc(N2CCN(c3ccccc3)CC2)nc1
- EC50 [3]: > 120 µM (not active)
- EC50 (H4): 0.114 µM (active)
- AC50 (HeLa): 53.8 µM (active)
- EC50 [4]: > 120 µM (not active)

Compound: O=C(Nc1ccc2c[nH]nc2c1)c1ccccc1F
- EC50 (H4): > 120 µM (not active)
- AC50 [5]: 20.8 µM (active)

Compound: O=C(CCC(=O)OCC(=O)c1cccc([N+](=O)[O-])c1)NC1CCCCC1
- IC50 [6]: 25.2 µM (not active)
- EC50 (Beta-galactosidase): > 40 µM (inactive)

Compound: Cc1nc(CNc2ncnc3ccc(-c4ccc5c(c4)OCO5)cc23)cs1
- AC50 [7]: 0.0354 µM (active)

Compound: O=C(O)/C=C/C(=O)c1ccc2c(c1)CCc1ccccc1-2
- AC50 [8]: 15 µM (active)
- IC50 (Genome polyprotein): 22.9 µM (active)
- CC50 (Vero): 17.2 µM (active)
- AC50 (A-375): 35 µM (active)
- IC50 (Large T antigen): 34.5 µM (active)
- AC50 [9]: 16.6 µM (active)

Compound: Cc1ccc(OCc2nnc(SCc3nc4ccccc4[nH]3)n2Cc2ccco2)cc1
- EC50 [10]: 1.08 µM (active)

Compound: Nc1ccccc1Nc1cccc(C(F)(F)F)c1
- EC50 (HEK293 [11]): > 59.6 µM (inactive)
- EC50 (HEK293 [12]): > 59.6 µM (inactive)
- IC50 [13]: 5.09 µM (active)
- IC50 [14]: 89 µM (active)
- IC50 [15]: 4.45 µM (active)

Compound: Cc1ccc(C)c(S(=O)(=O)Nc2cc(SCC(=O)O)c(O)c3ccccc23)c1
- IC50 [16]: > 64 µM (inactive)
- AC50 [17]: 4.94 µM (active)
- IC50 (Hexokinase HKDC1 [18]): 10.2 µM (active)
- IC50 (Hexokinase-1): > 80 µM (inactive)
- AC50 (INS1): 4.28 µM (active)
- IC50 (Hexokinase HKDC1 [19]): 2.96 µM (active)
- IC50 [20]: 13.8 µM (active)
